EPA's CvTdb concentration-time database (doi:10.1093/toxsci/kfy020)

Columns and labels:
Assay in all cases: concentration in plasma after dosing
[1] = test system: rat; details: dosed: Propyzamide, 3.2120000000 mg/kg, oral, male, Sprague-Dawley
[2] = test system: rat; details: dosed: Propyzamide, 3.0000000000 mg/kg, oral, male, Sprague-Dawley
[3] = test system: rat; details: male, Sprague-Dawley
[4] = test system: rat; details: dosed: Propyzamide, 0.6 mg/kg, iv, male, Sprague-Dawley
[5] = test system: rat; details: dosed: Propyzamide, 3.0000000000 mg/kg, oral, male, Sprague-Dawley; remark: listed apart in the source
[6] = test system: rat; details: dosed: Propyzamide, 3.2120000000 mg/kg, oral, male, Sprague-Dawley; remark: listed apart in the source
[7] = test system: rat; details: dosed: Propyzamide, 3.0000000000 mg/kg, oral, male, Sprague-Dawley; remark: listed apart in the source
[8] = test system: rat; details: dosed: Propyzamide, 0.6 mg/kg, iv, male, Sprague-Dawley; remark: listed apart in the source
[9] = test system: rat; details: dosed: Imazalil, 1.0000000000 mg/kg, iv, male, Sprague-Dawley
[10] = test system: rat; details: dosed: Imazalil, 1.0000000000 mg/kg, iv, male, Sprague-Dawley; remark: listed apart in the source

C#CC(C)(C)NC(=O)c1cc(Cl)cc(Cl)c1 [Propyzamide]
concentration in plasma [ng/mL]
Details	[1]	[2]	[4]	[5]	[6]	[7]	[8]
0.25 h	217	62.6	–	43.1	228	125	–
0.5 h	244	83.7	46.9	104	302	118	65.8
1 h	205	61.9	23.8	75.4	262	90.6	49.6
2 h	98.2	29.5	9.3	46.3	158	50.7	19.8
4 h	159	49.3	1.2	54	234	17.4	7.8
5 min	–	–	119	–	–	–	156
8 h	148	50.9	1.4	44.1	116	24.1	–
10 min	–	–	122	–	–	–	131
12 h	–	6.1	–	8.2	–	8.2	0.6
24 h	2.89	–	–	1.5	3.06	–	–
48 h	0.376	–	–	–	0.269	–	–
72 h	0.0426	–	–	–	0.0997	–	–

[3], dosed: Propyzamide
Details	concentration in plasma [ng/mL]
0.25 h, 3.0000000000 mg/kg, oral	96.6
0.25 h, 3.2120000000 mg/kg, oral	252
0.5 h, 0.6 mg/kg, iv	47.6
0.5 h, 3.0000000000 mg/kg, oral	130
0.5 h, 3.2120000000 mg/kg, oral	359
1 h, 0.6 mg/kg, iv	15.1
1 h, 3.0000000000 mg/kg, oral	103
1 h, 3.2120000000 mg/kg, oral	323
2 h, 3.0000000000 mg/kg, oral	58.4
2 h, 3.2120000000 mg/kg, oral	153
4 h, 0.6 mg/kg, iv	3.1
4 h, 3.0000000000 mg/kg, oral	39.7
4 h, 3.2120000000 mg/kg, oral	174
5 min, 0.6 mg/kg, iv	165
8 h, 3.0000000000 mg/kg, oral	49.7
8 h, 3.2120000000 mg/kg, oral	83.5
10 min, 0.6 mg/kg, iv	117
12 h, 3.0000000000 mg/kg, oral	16.8
24 h, 3.0000000000 mg/kg, oral	1.2
24 h, 3.2120000000 mg/kg, oral	2.23
48 h, 3.2120000000 mg/kg, oral	0.327
72 h, 3.2120000000 mg/kg, oral	0.0846

C=CCOC(Cn1ccnc1)c1ccc(Cl)cc1Cl (stereo not drawn) [Imazalil]
concentration in plasma [ng/mL], [3], dosed: Imazalil
Details	0.25 h	0.5 h	1 h	2 h	4 h	5 min	10 min
1.0000000000 mg/kg, iv	–	25.6	20.7	7.2	3.6	139	63.9
5.0000000000 mg/kg, oral	9.7	11.4	7.9	1	–	–	–

concentration in plasma [ng/mL]
Details	0.5 h	1 h	2 h	4 h	5 min	10 min
[9]	23.8	12.2	6.6	3.4	125	73.5
[10]	33.3	22	6.8	5.3	162	71.5
